Measurements published in the supplement of paper PMC3974653.
Counter-ions that a name gives are not always drawn.

Tested on: MTT (mouse pheochromocytoma)
Experiment: IC50 of cell viability (ATP content)
Conditions: (24 or 48 h)
Procedure, shortened: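 Each well of a white 1536-well plate received 5 µl of MTT mouse pheochromocytoma cells at 200,000 cells/ml in DMEM containing 5% FBS and 1% horse serum. After overnight culture at 37°C, 5% CO2, cells were exposed for 24 or 48 hrs to 23 nl of library compound in DMSO, pinned at 8 final concentrations from 0.5 nM to 46 µM. CellTiter-Glo luminescence was read after 15 minutes, and IC50 was obtained from a four-parameter logistic fit of signals normalised to positive-control and DMSO wells.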

Row | Structure (SMILES) | IC50 of cell viability [µM]
1 | COc1cc(C(=O)N2CCOCC2)cc(OC)c1OC [TRIMETOZINUM] | > 46
2 | FC(F)(F)c1ccccc1-n1ccnc1 [TRIM] | > 46
3 | CN(C)CCN(Cc1ccccc1)c1ccccn1.O=C(O)CC(O)(CC(=O)O)C(=O)O [TRIPELENNAMINE CITRATE] | > 46
4 | CC(C)C[C@H](NC(=O)[C@@H](Cc1c[nH]c2ccccc12)NC(=O)[C@@H](Cc1ccc(O)cc1)NC(=O)[C@@H](CO)NC(=O)[C@@H](Cc1c[nH]c2ccccc12)NC(=O)C(Cc1c[nH]cn1)NC(=O)C1CCC(=O)N1)C(=O)N[C@@H](CCCNC(=N)N)C(=O)N1CCC[C@@H]1C(=O)NCC(N)=O (stereo partly drawn) [TRIPTORELIN PAMOATE] | > 46
5 | COc1cc(C(=O)N2CCCCCCC2)cc(OC)c1OC [TROCIMINUM] | > 46
6 | NC(CO)(CO)CO [TROMETHAMINE] | > 46
7 | Cc1cc(C)cc(C(=O)OC2CC3CCC(C2)N3C)c1 (stereo not drawn) [TROPANYL 3,5-DIMETHYLBENZOATE] | > 46
8 | CCN(Cc1ccncc1)C(=O)C(CO)c1ccccc1 (stereo not drawn) [TROPICAMIDE] | > 46
9 | CN1C2CCC1CC(OC(=O)c1c[nH]c3ccccc13)C2 (stereo not drawn) [TROPISETRON] | > 46
10 | O=C(O[C@H]1C[C@H]2CC[C@@H](C1)[N+]21CCCC1)C(O)(c1ccccc1)c1ccccc1 [TROSPIUM CHLORIDE] | > 46
11 | NC1C2CN(CC12)C3=NC4=C(C=C3F)C(=O)C(=C/N4C5=CC=C(F)C=C5F)\C(O)=O (stereo not drawn) [TROVAFLOXACIN MESYLATE] | > 46
12 | NC/1=N/C(=O)N(/C=C1)[C@H]2CO[C@H](CO)O2 [TROXACITABINE (Troxatyl)] | > 46
13 | CC1OC(OCC2OC(OC/3=C(/OC4=C(C(=CC(=C4)OCCO)O)C3=O)C5=CC=C(OCCO)C(=C5)OCCO)C(O)C(O)C2O)[C@@H](O)C(O)C1O (stereo partly drawn) [TROXERUTIN] | > 46
14 | COc1cc(C(=O)NC2CCCNC2)cc(OC)c1OC (stereo not drawn) [TROXIPIDE] | > 46
15 | CCCCCC(C)N.O=[S+]([O-])(O)O (stereo not drawn) [TUAMINOHEPTANE SULFATE] | > 46
16 | CC(C)(C)NCC(O)c1ccccc1Cl.Cl (stereo not drawn) [TULOBUTEROL] | > 46
17 | CCC1OC(=O)CC(O)C(C)[C@@H](O[C@@H]2OC(C)[C@H](O[C@@H]3C[C@@](C)(O)C(O)C(C)O3)C(N(C)C)C2O)[C@H](CC=O)CC(C)C(=O)/C=C/C(C)=C/[C@@H]1COC1OC(C)C(O)C(OC)[C@@H]1OC (stereo partly drawn) [TYLOSIN TARTRATE] | > 46
18 | CCCC(=O)Nc1c(I)cc(I)c(C[C@H](CC)C(=O)O)c1I [TYROPANOATE SODIUM] | > 46
19 | N[C@@H](Cc1ccc(O)cc1)C(=O)O [TYROSINE] | > 46
20 | CC1(C)S[C@H]2[C@H](NC(=O)[C@@H](N)C3=CC=CC=C3)C(=O)[N@]2[C@H]1C(=O)O[C@@H]4OC(=O)C5=C4C=CC=C5 [Talampicillin hydrochloride] | > 46
21 | O=C1[C@@H]2[C@H]3CC[C@H](C3)[C@@H]2C(=O)N1CCCCN1CCN(c2ncccn2)CC1 [Tandospirone] | > 46
22 | COc1cc2c(N3CCN(C(=O)Nc4ccc(OC(C)C)cc4)CC3)ncnc2cc1OCCCN1CCCCC1 [Tandutinib] | > 46

Row | Structure (SMILES) | IC50 of cell viability [µM]
23 | O=C([O-])c1cccc(/C=C2/C[C@@H]3[C@@H](/C=C/[C@@H](O)C4CCCCC4)[C@H](O)C[C@@H]3O2)c1 [Taprostene sodium salt] | > 46
24 | O=C([O-])C1=NN(c2ccc(S(=O)(=O)[O-])cc2)C(=O)/C1=N\Nc1ccc(S(=O)(=O)[O-])cc1 [Tartrazine] | > 46
25 | CCCCOC(=O)C(=O)Nc1cccc(-c2nnn[nH]2)c1 [Tazanolast] | > 46
26 | CC1(Cn2ccnn2)[C@H](C(=O)O)N2C(=O)C[C@H]2[S+]1(=O)[O-] (stereo partly drawn) [Tazobactam sodium] | > 46
27 | CC1CN(CCN1)C2=CC3=C(C=C2F)C(=O)\C(=C/N3C4=CC=C(F)C=C4F)C(O)=O (stereo not drawn) [Temafloxacin] | > 46
28 | CN1C(=O)C(O)N=C(c2ccccc2)c2cc(Cl)ccc21 (stereo not drawn) [Temazepam] | > 46
29 | Oc1cccc(-c2c3nc(c(-c4cccc(O)c4)c4ccc([nH]4)c(-c4cccc(O)c4)c4nc(c(-c5cccc(O)c5)c5ccc2[nH]5)CC4)C=C3)c1 [Temoporfin] [listing 1 of 2 here] | > 46
30 | Oc1cccc(-c2c3nc(c(-c4cccc(O)c4)c4ccc([nH]4)c(-c4cccc(O)c4)c4nc(c(-c5cccc(O)c5)c5ccc2[nH]5)CC4)C=C3)c1 [Temoporfin] [listing 2 of 2 here] | > 46
31 | O=C1/C(=C\c2cccs2)CCC/C1=C/c1cccs1 [Tenilidona] | > 46
32 | O=C(Nc1ncc([N+](=O)[O-])s1)c1cccs1 [Tenonitrozol] | > 46
33 | CN1\C(=C(\O)C2=C(C=CS2)[S+]1([O-])=O)C(=O)NC3=CC=CC=N3 [Tenoxicam] | > 46
34 | COc1cc2nc(N3CCN(C(=O)[C@H]4CCCO4)CC3)nc(N)c2cc1OC [Terazosin hydrochloride] | > 46
35 | CN(C/C=C/C#CC(C)(C)C)Cc1cccc2ccccc12 [Terbinafine] | > 46
36 | CC(C)(C)NC[C@H](O)c1cc(O)cc(O)c1 [Terbutaline hemisulfate] | > 46
37 | CC(C)N1CCN(c2ccc(OC[C@@H]3CO[C@@](Cn4cncn4)(c4ccc(Cl)cc4Cl)O3)cc2)CC1 [Terconazole] | > 46
38 | CC(C)(C)c1ccc(C(O)CCCN2CCC(C(O)(c3ccccc3)c3ccccc3)CC2)cc1 (stereo not drawn) [Terfenadine] | > 46
39 | CC(CC(c1ccccc1)c1ccccc1)NC(C)(C)C (stereo not drawn) [Terodiline hydrochloride] | > 46
40 | CCO[C@@H](Cc1ccc(OCCc2ccc(O[S+](C)(=O)[O-])cc2)cc1)C(=O)O [Tesaglitazar] | > 46
41 | C[C@]12C=CC(=O)C=C1CC[C@@H]1C2CC[C@]2(C)OC(=O)CCC12 (stereo partly drawn) [Testolactone] | > 46
42 | C[C@]12CCC3[C@@H](CCC4=CC(=O)CC[C@@]43C)C1CCC2OC(=O)CCc1ccccc1 (stereo partly drawn) [Testosterone 17-phenylpropionate] | > 46
43 | CCC(=O)O[C@@H]1CC[C@@H]2[C@@H]3CC\C4=C\C(=O)CC[C@@]4(C)[C@H]3CC[C@@]12C [Testosterone propionate] | > 46
